These compounds were tested against T1, KRAS (G12D)-HiBit in AsPc-1-KRAS (G12D)-HiBit-KI cell (Homo sapiens, UniProt P01116, G12D) (assay: G12D HiBit assay). Conditions: 24 hours compound treatment, absolute DC50, read-out: Average PHA DC50.
T1 construct: host or cells: AsPc-1-KRAS (G12D)-HiBit-KI cells (knock-in line)
Type: cell-based
Description: Day 1. Prepared the culture medium for AsPc-1-KRAS (G12D)-HiBit-KI cell (Pharmaron) using RPMI 1640 medium (Gibco, 11875093) with 10% FBS (Gibco, 10099141C) and 1% Penicillin-Streptomycin Liquid (Solarbio, P1400). Cultivated cells in T-75 flasks in a cell culture incubator (Thermo, Model: 371) at 37° C., 5% CO2. Allowed cells to reach approximately 80% confluence before splitting. Rinsed cultivated cells in T-75 flasks with 5 mL PBS (Solarbio, P1020-500). Aspirated off PBS, added 1.5 mL trypsin (Invitrogen, #25300), and incubated at 37° C. for approximately 5 minutes or until the cells detached. Inactivated trypsin by adding excessive serum containing medium. Harvested the cells from flask into cell culture medium and counted the cell number. Seeded AsPc-1-KRAS (G12D)-HiBit-KI cell into 384-well plate (Corning, 3570) (cell density: 5×10^3 cells/well in 50 μL medium) in RPMI 1640 medium and incubated overnight at 37° C. and 5% CO2.
Day 2. Test compounds were dissolved at 0.3 mM in DMSO (Solarbio, D8371) as stock solution. Transferred 45 μL of stock solution to a 384-well plate (Labcyte, 001-14555). Performed 3-fold, 10-points dilution via transferring 15 μL compound into 30 μL DMSO by using TECAN liquid handler (TECAN, Freedom EVO200). The compound plates were spin at room temperature at 1,000 RPM for 1 minute (Eppendorf, 5810R). Transferred 50 nL of diluted compounds from compound source plate into the cell plate by Echo (Labcyte, 550) to achieve final concentrations of 300 nM, 100 nM, 33.3 nM, 11.1 nM, 3.7 nM, 1.23 nM, 0.41 nM, 0.14 nM, 0.046 nM and 0.015 nM, then mixed the cell plate on a plate shaker (Yoning, WZ-4) for 15 seconds at 900 rpm. After compound treatment for 24 hours, removed the plate from incubators and equilibrated at room temperature for 15 minutes. Prepared the HiBit reagent (Promega, N3040) by mixing 10 mL of Nano-Glo®-HiBiT Lytic Buffer with 200 μL of Nano-Glo®-HiBiT Lytic Substrate and 100 μL of LgBiT Protein. Added 20 μL of HiBit reagent into each well of the cell plate and spun the plates at room temperature at 1,000 RPM for 1 minute. Then shook the plates at 600 RPM at room temperature for 20 minutes using a plate shaker (Yoning, WZ-4), and read the luminescence by EnVision (PerkinElmer, 2105-0020).
The inhibition activity was calculated using the following formula: HiBit-G12D level (%)=100%×[Luminescence(Sample)/Mean of Luminescence (HC)] where HC (high control) is obtained from cells treated with 0.1% DMSO only.
Absolute DC50 was calculated by fitting the curve using GraphPad Prism v8.0.2 (analyis 263): Y=Bottom+(100−Bottom)/(1+10^(Log AbsoluteIC50−X)*HillSlope+log((100−Bottom)/(50−Bottom)−1)))
The data are reported in Table 3, wherein “+++”=DC50 less than 100 nM, “++”=DC50 greater than or equal to 100 nM and less than 300 nM; “+”=DC50 greater than or equal to 300 nM.

T1 sequence (P01116 1-188 isoform P01116-2 G12D): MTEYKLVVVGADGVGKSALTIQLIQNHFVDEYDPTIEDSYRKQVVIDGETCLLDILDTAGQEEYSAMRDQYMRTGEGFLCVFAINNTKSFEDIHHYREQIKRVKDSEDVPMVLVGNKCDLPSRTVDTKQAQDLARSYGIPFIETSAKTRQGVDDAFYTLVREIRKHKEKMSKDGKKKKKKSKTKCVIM

Row | SMILES | DC50
1 | C#Cc1c(F)ccc2cccc(-c3ncc4c(N5CC6CCC(C5)N6)nc(OC[C@@]56CCCN5[C@H](COC(=O)N5CCN(C7CCN(Cc8ccc9c(c8)n(C)c(=O)n9C8CCC(=O)NC8=O)CC7)CC5)CC6)nc4c3F)c12 (some centres unmarked) [Compound 72] | 0.1 to 0.3 µM
2 | C#Cc1c(F)ccc2cccc(-c3ncc4c(N5CC6CCC(C5)N6)nc(OC[C@@]56CCCN5[C@H](COC(=O)N5CCC(N7CCC(Cc8ccc9c(c8)n(C)c(=O)n9C8CCC(=O)NC8=O)CC7)CC5)CC6)nc4c3F)c12 (some centres unmarked) [Compound 75] | 0.1 to 0.3 µM
3 | C#Cc1c(F)ccc2cccc(-c3ncc4c(N5CC6CCC(C5)N6)nc(OC[C@]56CCCN5[C@@H](COC(=O)N5CCC(CC7CCN(Cc8cccc9c8n(C)c(=O)n9C8CCC(=O)NC8=O)CC7)CC5)CC6)nc4c3F)c12 (some centres unmarked) [Compound 77] | 0.1 to 0.3 µM
4 | C#Cc1c(F)ccc2cccc(-c3ncc4c(N5CC6CCC(C5)N6)nc(OC[C@@]56CCCN5[C@H](COC(=O)N5CCC(CN7CCC(c8cccc9c8n(C)c(=O)n9C8CCC(=O)N(C)C8=O)CC7)CC5)CC6)nc4c3F)c12 (some centres unmarked) [Compound 79] | ≥ 0.3 µM
5 | C#Cc1c(F)ccc2cccc(-c3ncc4c(N5CC6CCC(C5)N6)nc(OC[C@@]56CCCN5[C@H](COC(=O)N5CCN(CCC7CCN(Cc8cccc9c8n(C)c(=O)n9C8CCC(=O)NC8=O)CC7)CC5)CC6)nc4c3F)c12 (stereo partly drawn) [Compound 85, [(3S,8S)-8-[[4-(3,8-Diazabicyclo[3.2.1]octan-3-yl)-7-(8-ethynyl-7-fluoro-1-naphthyl)-8-fluoro-pyrido[4,3-d]pyrimidin-2-yl]oxymethyl]-1,2,3,5,6,7-hexahydropyrrolizin-3-yl]methyl4-[2-[1-[[1-(2,6-dioxo-3-piperidyl)-3-methyl-2-oxo-benzimidazol-4-yl]methyl]-4-piperidyl]ethyl]piperazine-1-carboxylate] | < 0.1 µM
6 | C#Cc1c(F)ccc2cccc(-c3ncc4c(N5CC6CCC(C5)N6)nc(OC[C@@]56CCCN5[C@H](COC(=O)N5CCC(CCN7CCN(Cc8ccc9c(c8)n(C)c(=O)n9C8CCC(=O)NC8=O)CC7)CC5)CC6)nc4c3F)c12 (stereo partly drawn) [Compound 87, [(3S,8S)-8-[[4-(3,8-Diazabicyclo[3.2.1]octan-3-yl)-7-(8-ethynyl-7-fluoro-1-naphthyl)-8-fluoro-pyrido[4,3-d]pyrimidin-2-yl]oxymethyl]-1,2,3,5,6,7-hexahydropyrrolizin-3-yl]methyl 4-[2-[4-[[1-(2,6-dioxo-3-piperidyl)-3-methyl-2-oxo-benzimidazol-5-yl]methyl]piperazin-1-yl]ethyl]piperidine-1-carboxylate] | < 0.1 µM
7 | C#Cc1c(F)ccc2cccc(-c3ncc4c(N5CC6CCC(C5)N6)nc(OC[C@@]56CCCN5[C@H](COC(=O)N5CCN(CCC7CCN(Cc8ccc9c(c8)n(C)c(=O)n9C8CCC(=O)NC8=O)CC7)CC5)CC6)nc4c3F)c12 (stereo partly drawn) [Compound 88, [(3S,8S)-8-[[4-(3,8-Diazabicyclo[3.2.1]octan-3-yl)-7-(8-ethynyl-7-fluoro-1-naphthyl)-8-fluoro-pyrido[4,3-d]pyrimidin-2-yl]oxymethyl]-1,2,3,5,6,7-hexahydropyrrolizin-3-yl]methyl 4-[2-[1-[[1-(2,6-dioxo-3-piperidyl)-3-methyl-2-oxo-benzimidazol-5-yl]methyl]-4-piperidyl]ethyl]piperazine-1-carboxylate] | < 0.1 µM

Continued, values first:

Row | DC50 | SMILES
8 | < 0.1 µM | C#Cc1c(F)ccc2cccc(-c3ncc4c(N5CC6CCC(C5)N6)nc(OC[C@@]56CCCN5[C@H](COC(=O)N5CCC(OCC7CCN(Cc8ccc9c(c8)n(C)c(=O)n9C8CCC(=O)NC8=O)CC7)CC5)CC6)nc4c3F)c12 (some centres unmarked) [Compound 71]
9 | < 0.1 µM | C#Cc1c(F)ccc2cccc(-c3ncc4c(N5CC6CCC(C5)N6)nc(OC[C@@]56CCCN5[C@H](COC(=O)N5CCC(COC7CN(Cc8ccc9c(c8)n(C)c(=O)n9C8CCC(=O)NC8=O)C7)CC5)CC6)nc4c3F)c12 (some centres unmarked) [Compound 73]
10 | < 0.1 µM | C#Cc1c(F)ccc2cccc(-c3ncc4c(N5CC6CCC(C5)N6)nc(OC[C@@]56CCCN5[C@H](COC(=O)N5CCC(OC7CN(Cc8ccc9c(c8)n(C)c(=O)n9C8CCC(=O)NC8=O)C7)CC5)CC6)nc4c3F)c12 (some centres unmarked) [Compound 74]
11 | < 0.1 µM | C#Cc1c(F)ccc2cccc(-c3ncc4c(N5CC6CCC(C5)N6)nc(OC[C@]56CCCN5[C@@H](COC(=O)N5CCC(CN7CCC(c8ccc9c(c8)n(C)c(=O)n9C8CCC(=O)NC8=O)CC7)CC5)CC6)nc4c3F)c12 (some centres unmarked) [Compound 76]
12 | < 0.1 µM | C#Cc1c(F)ccc2cccc(-c3ncc4c(N5CC6CCC(C5)N6)nc(OC[C@@]56CCCN5[C@H](COC(=O)N5CC(CN7CCC(Oc8cccc9c8n(C)c(=O)n9C8CCC(=O)NC8=O)CC7)C5)CC6)nc4c3F)c12 (some centres unmarked) [Compound 78]
13 | < 0.1 µM | C#Cc1c(F)ccc2cccc(-c3ncc4c(N5CC6CCC(C5)N6)nc(OC[C@@]56CCCN5[C@H](COC(=O)N5CC[C@H](CN7CCC(c8ccc9c(c8)n(C)c(=O)n9C8CCC(=O)NC8=O)CC7)C5)CC6)nc4c3F)c12 (some centres unmarked) [Compound 80]
14 | < 0.1 µM | C#Cc1c(F)ccc2cccc(-c3ncc4c(N5CC6CCC(C5)N6)nc(OC[C@@]56CCCN5[C@H](COC(=O)N5CC[C@@H](CN7CCC(c8ccc9c(c8)n(C)c(=O)n9C8CCC(=O)NC8=O)CC7)C5)CC6)nc4c3F)c12 (stereo partly drawn) [Compound 81, [(3S,8S)-8-[[4-(3,8-Diazabicyclo[3.2.1]octan-3-yl)-7-(8-ethynyl-7-fluoro-1-naphthyl)-8-fluoro-pyrido[4,3-d]pyrimidin-2-yl]oxymethyl]-1,2,3,5,6,7-hexahydropyrrolizin-3-yl]methyl (3S)-3-[[4-[1-(2,6-dioxo-3-piperidyl)-3-methyl-2-oxo-benzimidazol-5-yl]-1-piperidyl]methyl]pyrrolidine-1-carboxylate]
15 | < 0.1 µM | C#Cc1c(F)ccc2cc(O)cc(-c3ncc4c(N5CC6CCC(C5)N6)nc(OC[C@@]56CCCN5[C@H](COC(=O)N5CCC(CN7CCC(c8ccc9c(c8)n(C)c(=O)n9C8CCC(=O)NC8=O)CC7)CC5)CC6)nc4c3F)c12 (stereo partly drawn) [Compound 82, [(3S,8S)-8-[[4-(3,8-Diazabicyclo[3.2.1]octan-3-yl)-7-(8-ethynyl-7-fluoro-3-hydroxy-1-naphthyl)-8-fluoro-pyrido[4,3-d]pyrimidin-2-yl]oxymethyl]-1,2,3,5,6,7-hexahydropyrrolizin-3-yl]methyl 4-[[4-[1-(2,6-dioxo-3-piperidyl)-3-methyl-2-oxo-benzimidazol-5-yl]-1-piperidyl]methyl] piperidine-1-carboxylate]
16 | < 0.1 µM | C#Cc1c(F)ccc2cccc(-c3ncc4c(N5CC6CCC(C5)N6)nc(OC[C@@]56CCCN5[C@H](COC(=O)N5CC(OC7CCN(Cc8cccc9c8n(C)c(=O)n9C8CCC(=O)NC8=O)CC7)C5)CC6)nc4c3F)c12 (stereo partly drawn) [Compound 83, [(3S,8S)-8-[[4-(3,8-Diazabicyclo[3.2.1]octan-3-yl)-7-(8-ethynyl-7-fluoro-1-naphthyl)-8-fluoro-pyrido[4,3-d]pyrimidin-2-yl]oxymethyl]-1,2,3,5,6,7-hexahydropyrrolizin-3-yl]methyl3-[[1-[[1-(2,6-dioxo-3-piperidyl)-3-methyl2-oxo-benzimidazol-4-yl]methyl]-4-piperidyl]oxy]azetidine-1-carboxylate]
17 | < 0.1 µM | C#Cc1c(F)ccc2cccc(-c3ncc4c(N5CC6CCC(C5)N6)nc(OC[C@@]56CCCN5[C@H](COC(=O)N5CCC(CCN7CCN(Cc8cccc9c8n(C)c(=O)n9C8CCC(=O)NC8=O)CC7)CC5)CC6)nc4c3F)c12 (stereo partly drawn) [Compound 84, [(3S,8S)-8-[[4-(3,8-Diazabicyclo[3.2.1]octan-3-yl)-7-(8-ethynyl-7-fluoro-1-naphthyl)-8-fluoro-pyrido[4,3-d]pyrimidin-2-yl]oxymethyl]-1,2,3,5,6,7-hexahydropyrrolizin-3-yl]methyl4-[2-[4-[[1-(2,6-dioxo-3-piperidyl)-3-methyl-2-oxo-benzimidazol-4-yl]methyl]piperazin-1-yl]ethyl]piperidine-1-carboxylate]

Reference: patent publication US12404285B2, “KRAS G12D proteolysis targeting chimeras” (PAQ Therapeutics Inc., priority 2022, dated 2025)
